Assay results from US20220289686A1, “COMPOSITIONS OF NRF2 INHIBITING AGENTS AND METHODS OF USE THEREOF” (Washington University, priority 2021, published 2022).
Entries after “also recorded” stand apart in the source; their conditions may differ. Read-outs that look alike come from different tables or passages of the source.

How the values were obtained:
[1] = system: NRF2 activity in H1299-NQO1-YFP cells; assay: NRF2 activity reporter IC50 in H1299-NQO1-YFP cells vs NRF2 pathway activators (IncuCyte, YFP/mCherry); format: cell-based
Procedure: Readings were taken every 2 hours for at least 24 hours. […] Readings were also taken every 2 hours for 96 hours in and IncuCyte S3.
YFP total intensity (correlating to NRF2 activity) was normalized to NLS-mCherry (cell number) total intensity to give a ratio (YFP/mCherry). Ratios at one time point at least 24 hours post compounds were added were used. These numbers were then plotted in Graphpad Prism to calculate IC50s. […] From three biological replicates, percent confluence was used for proliferation assays to calculate IC50s, calculations performed using Graphpad Prism.

[2] = system: NRF2 protein; assay: Western blot analysis of NRF2 protein abundance and downstream targets in cell lines; format: cell-based; details: for NRF2 protein abundance: western blot, 24-48 hours, PYR 10 μM, analogs 1 μM (104 in HEK293T 10 μM), MTX and PEM 0.1 μM, CG 10 μM
Procedure: Western Blots: KYSE70, HEK293T cells were plated and 24 hours later treated with compounds (see figure legends for details). Either at 24 or 48 hours later, cells were scrapped in RIPA buffer (0.2% deoxycholate, 0.1% SDS, 1% NP40, 150 mM NaCl, 50 mM Tris pH 7.4, 2 mM EDTA) supplemented with protease and phosphatase inhibitors, cleared at 14000×g for 15 minutes at 4° C., and supernatants were quantified by BCA assay (Pierce, 23225). Protein samples (20 μg) were prepared with 1×LDS buffer with 100 mM DTT, ran on NuPAGE 4-12% Bis-tris gels, and transferred onto a […] nitrocellulose membrane (Thermo, 88018). All blots were blocked in 5% milk in TBST for 30 minutes. After incubation of the primary antibody overnight at 4° C. and washed three times with 1×TBST, blots were incubated with LI-COR secondary antibodies for 1-2 hours, washed in 1×TBST thrice, and then imaged via a LI-COR Odyssey instrument (Li-COR, Lincoln, Nebr.).

[3] = Table 1, activator CDDO 0.1 μM, H1299-NQO1-YFP cells, read-out: CDDO 0.1 μM IC50 μM ± SEM
[4] = Table 1, activator SULF 2 μM, H1299-NQO1-YFP cells, read-out: SULF 2 μM IC50 μM ± SEM
[5] = Table 1 and text, average over activators CDDO, PRL295, SULF, H1299-NQO1-YFP cells, read-out: Avg IC50
[6] = Table 6 NRF2 inhibitors, read-out: Avg IC50
[7] = read-out: PRL295 5 μM IC50 AM ± SEM, Table 1, activator PRL295 5 μM, H1299-NQO1-YFP cells

IC50 [1, 3] [µM]	IC50 [1, 4] [µM]	IC50 [1, 5] [µM]	IC50 [1, 6] [µM]	IC50 [1, 7] [µM]	IC50 ([1]; unit inferred, read-out: IC50) [µM]	SMILES	NRF2 protein on co-treatment with Bortezomib ([2]; BORT 0.04 μM co-treatment, HEK293T, H1299)	NRF2 protein abundance [2]
16.9 ± 2.56	12.5 ± 0.798	13.1	13.1	9.99 ± 0.0737	–	Nc1ncc(-c2ccc(Cl)cc2)c(N)n1 [WCDD103, 5-(4-chlorophenyl)pyrimidine-2,4-diamine]	–	–
0.103 ± 0.001	0.129 ± 0.003	0.1	0.098	0.061 ± 0.003	0.1	CCc1nc(N)nc(N)c1-c1cccc(Cl)c1 [WCDD104, 5-(3-chlorophenyl)-6-ethylpyrimidine-2,4-diamine]	demonstrated a proteasomal requirement for activity	inhibition of NRF2 protein abundance and downstream target gene expression; also recorded: decrease NRF2 protein abundance
5.12 ± 0.074	3.279 ± 0.006	4.04	4.04	3.74 ± 0.499	–	CCc1nc(N)nc(N)c1-c1ccc(C(C)(F)F)cc1 [WCDD105, 5-(4-(1,1-difluoroethyl)phenyl)-6-ethylpyrimidine-2,4-diamine]	–	–
–	–	> 20	> 20	–	–	CCc1nc(N)nc(N)c1-c1ccc(S(=O)(=O)C2CCCC2)cc1 [WCDD106, 5-(4-(cyclopentylsulfonyl)phenyl)-6-ethylpyrimidine-2,4-diamine]	–	–
–	–	> 20	> 20	–	–	CCc1nc(N)nc(N)c1-c1ccc(S(=O)(=O)N2CC3(COC3)C2)cc1 [WCDD107, 5-(4-((2-oxa-6-azaspiro[3.3]heptan-6-yl)sulfonyl)phenyl)-6-ethylpyrimidine-2,4-diamine]	–	–
16.9 ± 0.208	12.56 ± 0.103	14.9	14.9	15.2 ± 1.29	–	CCc1nc(N)nc(N)c1-c1ccc(S(=O)(=O)C2CC3CC3C2)cc1 (stereo not shown) [WCDD108, 5-(4-(bicyclo[3.1.0]hexan-3-ylsulfonyl)phenyl)-6-ethylpyrimidine-2,4-diamine]	–	–
–	–	> 20	> 20	–	–	CCc1nc(N)nc(N)c1-c1ccc(N2CC3CC3C2)cc1 (stereo not shown) [WCDD110, 5-(4-(3-azabicyclo[3.1.0]hexan-3-yl)phenyl)-6-ethylpyrimidine-2,4-diamine]	–	–
1.1 ± 0.016	0.91 ± 0.01	1.18	1.18	1.51 ± 0.0329	–	CCc1nc(N)nc(N)c1-c1ccccc1 [WCDD111, 6-ethyl-5-phenylpyrimidine-2,4-diamine]	–	–
19.8 ± 0.338	10.92 ± 0.0655	13.9	13.9	10.8 ± 0.62	–	CCC1=NC(N)=NC(=O)C1c1ccc(Cl)cc1 (stereo not shown) [WCDD112, 2-amino-5-(4-chlorophenyl)-6-ethylpyrimidin-4(5H)-one]	–	–
0.134 ± 0.014	0.111 ± 0.009	0.1	0.108	0.079 ± 0.002	0.1	CCc1nc(N)nc(N)c1-c1cc(Cl)cc(Cl)c1 [WCDD114, 5-(3,5-dichlorophenyl)-6-ethylpyrimidine-2,4-diamine]	–	decrease NRF2 protein abundance
0.614 ± 0.021	0.557 ± 0.03	0.5	0.57	0.552 ± 0.003	–	CCc1nc(N)nc(N)c1-c1ccc2c(c1)CCC2 [WCDD119, 5-(2,3-dihydro-1H-inden-5-yl)-6-ethylpyrimidine-2,4-diamine]	–	–
–	–	> 10	> 10	–	–	CCc1nc(N)nc(N)c1-c1cc(Cl)ccc1Cl [WCDD120, 5-(2,5-dichlorophenyl)-6-ethylpyrimidine-2,4-diamine]	–	–
–	–	> 5	> 5	–	–	CCc1nc(N)nc(N)c1-c1cccc(Cl)c1F [WCDD121, 5-(3-chloro-2-fluorophenyl)-6-ethylpyrimidine-2,4-diamine]	–	–
–	–	> 5	> 5	–	–	CCc1nc(N)nc(N)c1-c1cccc(N2CCCC2)c1 [WCDD122, 6-ethyl-5-(3-(pyrrolidin-1-yl)phenyl)pyrimidine-2,4-diamine]	–	–
–	–	> 20	> 20	–	–	CCc1ncnc(N)c1-c1cccc(Cl)c1 [WCDD125, 5-(3-chlorophenyl)-6-ethylpyrimidin-4-amine]	–	–
0.461 ± 0.017	0.397 ± 0.011	0.514	0.514	0.683 ± 0.002	–	COCCOCCc1nc(N)nc(N)c1-c1cccc(Cl)c1 [WCDD126, 5-(3-chlorophenyl)-6-(2-(2-methoxyethoxy)ethyl)pyrimidine-2,4-diamine]	–	–
0.469 ± 0.002	0.454 ± 0.006	0.456	0.456	0.444 ± 0.002	–	Nc1nc(N)c(-c2cccc(Cl)c2)c(CC2CCC2)n1 [WCDD127, 5-(3-chlorophenyl)-6-(cyclobutylmethyl)pyrimidine-2,4-diamine]	–	–
0.244 ± 0.006	0.163 ± 0.002	0.248	0.248	0.334 ± 0.004	–	C#CCCCc1nc(N)nc(N)c1-c1cccc(Cl)c1 [WCDD128, 5-(3-chlorophenyl)-6-(pent-4-yn-1-yl)pyrirnidine-2,4-diamine]	–	–
–	–	> 20	–	–	–	CCc1nc(NC)nc(NC)c1-c1ccc(Cl)cc1 [WCDD133, 5-(4-chlorophenyl)-6-ethyl-N2,N4-dimethylpyrimidine-2,4-diamine]	–	–
–	–	> 20	–	–	–	CCc1nc(N)nc(NC)c1-c1ccc(Cl)cc1 [WCDD133a, 5-(4-chlorophenyl)-6-ethyl-N4-methylpyrimidine-2,4-diamine]	–	–
1.84 ± 0.196	1.88 ± 0.024	1.43	1.43	1.84 ± 0.196	–	Nc1ncc(-c2cccc(Cl)c2)c(N)n1 [WCDD134, 5-(3-chlorophenyl)pyrimidine-2,4-diamine]	–	–
–	–	> 20	–	–	–	NCCCc1nc(N)nc(N)c1-c1cccc(C(F)(F)F)c1 [WCDD135, 6-(3-aminopropyl)-5-(3-(trifluoromethyl)phenyl)pyrimidine-2,4-diamine]	–	–
–	–	~0.15	–	0.153 ± 0.002	–	C#CCCC1(CCC(=O)NCCCc2nc(N)nc(N)c2-c2cccc(C(F)(F)F)c2)N=N1 [WCDD136, 3-(3-(but-3-yn-1-yl)-3H-diazirin-3-yl)-N-(3-(2,6-diamino-5-(3-(trifluoromethyl)phenyl)pyrimidin-4-yl)propyl)propanamide]	–	–
–	–	4.84	–	4.84 ± 0.284	–	Nc1nc(N)c(-c2cccc(C(F)(F)F)c2)c(CCCNC(=O)CCCC[C@H]2SCC3NC(O)NC32)n1 (stereo partly drawn) [WCDD137, N-(3-(2,6-diamino-5-(3-(trifluoromethyl)phenyl)pyrimidin-4-yl)propyl)-5-((4R)-2-hydroxyhexahydro-1H-thieno[3,4-d]imidazol-4-yl)pentanamide]	–	–
0.206 ± 0.0014	0.097 ± 0.003	0.14	0.14	0.106 ± 0.003	–	C=CCCc1nc(N)nc(N)c1-c1cccc(C(F)(F)F)c1 [WCDD139, 6-(but-3-en-1-yl)-5-(3-(trifluoromethyl)phenyl)pyrimidine-2,4-diamine]	–	–
